Where “and” joins values, the source holds several entries; their conditions need not be identical. Equal values may be shown once.
Assays:
E. coli (ATCC 8739) [1] = type: cell-based; details: E. coli (ATCC 8739)
Text: (§1) The MIC and MBC assays were used to assess the inhibitory activities of all 5 analogues of R2AW on the growth of planktonic microorganisms. The MIC is the lowest concentration that prevents the viable growth of bacteria. The MBC is the lowest concentration that results in bacterial death. Six microorganisms were used to detect the antimicrobial activity of peptides, including Gram-positive bacteria S. aureus (NCTC 10788), MRSA (NCTC 12493), Enterococcus faecalis (E. faecalis) (NCTC 12697), Gram-negative bacteria E. coli […], Klebsiella pneumoniae (K. pneumoniae) (ATCC 43816), and Pseudomonas aeruginosa (P. aeruginosa) (ATCC 9027). According to the assay described previously, the microorganisms were inoculated at 37 °C overnight and diluted to 5 × 10^5 CFU/mL after reaching the logarithmic growth period. The peptide stock solution at the concentration of 512 × 10^2 μM was prepared and diluted to 100 μM by a 2-fold dilution. One μL of each concentration of peptide solution was incubated with 99 μL of bacterial subculture in the 96-well plate for 18 h at 37 °C. The absorbance was determined at a wavelength of 550 nm using a Synergy HT plate reader (Bio Tek, Washington, DC, USA). […] As for those wells that were clearly visible, 20 μL of the solution was dropped onto the Mueller Hinton agar (MHA) dish and then incubated at 37 °C overnight. The lowest concentration with no colony growth was determined as the MBC.

[2] = system: K. pneumoniae (ATCC 43816); type: cell-based; details: K. pneumoniae (ATCC 43816)
Text: as §1

[3] = system: P. aeruginosa (ATCC 9027); type: cell-based; details: P. aeruginosa (ATCC 9027)
Text: as §1

E. coli (ATCC 8739) [4] = assay: Time–killing assay; type: cell-based, Escherichia coli; details: peptide control
Procedure: (§2) S. aureus (NCTC 10788), E. coli (ATCC 8739), MRSA (NCTC 12493), and P. aeruginosa (ATCC 9027) were used in this assay. Treatments of 2 × MIC, 1 × MIC, and 0.5 × MIC of [Lys^4,19, Leu^20]R2AW(1-22)-NH2 were prepared and mixed with 198 μL of diluted bacteria (5 × 10^5 CFU/mL). At each time point (0, 10, 20, 30, 60, 90, 120, and 180 min), 10 μL of peptide and bacteria mixture was dropped onto the MHA plate. After overnight incubation, the number of bacterial colonies was calculated. The CFU/mL could be calculated using the formula CFU/mL = (Number of colonies × dilution factor)/volume of culture.

[5] = system: P. aeruginosa (ATCC 9027); assay: Time–killing assay; type: cell-based, Pseudomonas aeruginosa; details: peptide control
Procedure: as §2

Colistin [reference compound]
MBC (E. coli (ATCC 8739) [1]): 0.3 mg/L and 0.25 µM
MIC (E. coli (ATCC 8739) [1]): 0.1 mg/L and 0.125 µM
MBC [2]: 18.5 mg/L and 16 µM
MIC [2]: 18.5 mg/L and 16 µM
MBC [3]: 2.3 mg/L and 2 µM
MIC [3]: 1.2 mg/L and 1 µM
killing effect in time–killing curve (E. coli (ATCC 8739) [4]): rapid bacterial killing effect
killing effect in time–killing curve [5]: rapid bacterial killing effect

— PMC10812557, “Progressive Design of a Ranatuerin-2 Peptide from Amolops wuyiensis: Enhancement of Bioactivity and In Vivo Efficacy” (Antibiotics, 2023)
